Data published in the supplement of paper PMC5908809.

What was measured:
[1] = test system: normal primary NK cells, pool 1 (3 donors), resting (IL-2 0 ng/mL); assay: drug sensitivity score (DSS) (DSS units); higher = more sensitive; extreme values may be limits of the assay; settings: 72 h
[2] = test system: IMC-1 (IL-2 20 ng/mL); assay: as above; settings: 72 h
[3] = test system: YT (IL-2 2.5 ng/mL); assay: as above; settings: 72 h
[4] = test system: normal primary NK cells, pool 3 (3 donors) (IL-2 2.5 ng/mL); assay: as above; settings: 72 h
[5] = test system: DERL-7 (IL-2 2.5 ng/mL); assay: as above; settings: 72 h
[6] = test system: NK-92 (IL-2 2.5 ng/mL); assay: as above; settings: 72 h
[7] = test system: NK-YS (IL-2 2.5 ng/mL); assay: as above; settings: 72 h
[8] = test system: KHYG-1 (IL-2 2.5 ng/mL); assay: as above; settings: 72 h
[9] = test system: NKL (IL-2 2.5 ng/mL); assay: as above; settings: 72 h
[10] = test system: SNK-6 (IL-2 2.5 ng/mL); assay: as above; settings: 72 h
[11] = test system: normal primary NK cells, pool 2 (3 donors) (IL-2 2.5 ng/mL); assay: as above; settings: 72 h
[12] = test system: normal primary NK cells, pool 1 (3 donors) (IL-2 2.5 ng/mL); assay: as above; settings: 72 h
[13] = test system: KAI3 (IL-2 2.5 ng/mL); assay: as above; settings: 72 h
[14] = test system: normal NK cells expanded with K562-aAPC; assay: as above; settings: 72 h; IL-2 2.5 ng/mL
Description: (§1)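 Drug sensitivity and resistance testing on K562-aAPC-expanded normal NK cells: 5 concentrations (10-fold steps over a 10,000-fold range), 72 h at 37 °C, viability by CellTiter-Glo normalised to DMSO and benzethonium chloride controls; DSS from the fitted curve.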

[15] = test system: normal NK cells expanded with K562-aAPC; assay: percent inhibition of viability; higher = more inhibition; settings: 72 h, IL-2 2.5 ng/mL
Description: as §1

[16] = test system: normal primary NK cells, pool 1 (3 donors), resting (IL-2 0 ng/mL); assay: as above; settings: 72 h
[17] = test system: IMC-1 (IL-2 20 ng/mL); assay: as above; settings: 72 h
[18] = test system: YT (IL-2 2.5 ng/mL); assay: as above; settings: 72 h
[19] = test system: normal primary NK cells, pool 3 (3 donors) (IL-2 2.5 ng/mL); assay: as above; settings: 72 h
[20] = test system: DERL-7 (IL-2 2.5 ng/mL); assay: as above; settings: 72 h
[21] = test system: NK-92 (IL-2 2.5 ng/mL); assay: as above; settings: 72 h
[22] = test system: NK-YS (IL-2 2.5 ng/mL); assay: as above; settings: 72 h
[23] = test system: KHYG-1 (IL-2 2.5 ng/mL); assay: as above; settings: 72 h
[24] = test system: NKL (IL-2 2.5 ng/mL); assay: as above; settings: 72 h
[25] = test system: SNK-6 (IL-2 2.5 ng/mL); assay: as above; settings: 72 h
[26] = test system: normal primary NK cells, pool 2 (3 donors) (IL-2 2.5 ng/mL); assay: as above; settings: 72 h
[27] = test system: normal primary NK cells, pool 1 (3 donors) (IL-2 2.5 ng/mL); assay: as above; settings: 72 h
[28] = test system: KAI3 (IL-2 2.5 ng/mL); assay: as above; settings: 72 h

C=CCc1cccc(/C=N/NC(=O)CN2CCN(Cc3ccccc3)CC2)c1O [PAC-1] (max concentration tested 10000 nM)
Settings | drug sensitivity score
[1] | 4.76
[2] | 5.83
[3] | 9.03
[4] | 7.93
[5] | 6.53
[6] | 12
[7] | 6.2
[8] | 14.7
[9] | 13.9
[10] | 11.3
[11] | 6.79
[12] | 5.57
[13] | 13
[14] | 8.67

percent inhibition of viability [%]
Settings | 1 nM | 10 nM | 100 nM | 1000 nM | 10000 nM
[15] | -3.35 | 4.92 | 2.56 | 20.9 | 96.8
[16] | -5.08 | -13.3 | -0.24 | -2.95 | 89.9
[17] | -3.49 | -2.97 | 1.56 | 1.88 | 100
[18] | -0.7 | -1.17 | 5.18 | 22.7 | 99
[19] | -13.1 | -3.83 | 0.14 | 15.8 | 96
[20] | -1.36 | 2.12 | -2.94 | 12.2 | 80.9
[21] | -11.7 | -11 | 17.2 | 50.3 | 103
[22] | -1.58 | -1.32 | 5.2 | 5.35 | 97.7
[23] | -1.19 | -1.29 | 5.59 | 74.1 | 104
[24] | -9.29 | 8.69 | 4.48 | 69.2 | 97.8
[25] | 10.2 | 3.22 | 2.33 | 48.9 | 97.7
[26] | -14.6 | -2.22 | 5.41 | 12 | 86.3
[27] | -3.78 | -2.13 | -1.5 | 3.37 | 92.1
[28] | -5.72 | -3.85 | 4.89 | 62.6 | 96.5

Cc1cc(C)c(CNC(=O)c2cc(-c3ccc(CN4CCOCC4)cc3)cc3c2cnn3C2CCCC2)c(=O)[nH]1 [EPZ-5687] (max concentration tested 10000 nM)
Settings | drug sensitivity score
[1] | 4.36
[2] | 0
[3] | 0
[4] | 0
[5] | 0
[6] | 0
[7] | 0
[8] | 0
[9] | 0
[10] | 0
[11] | 0
[12] | 0
[13] | 0
[14] | 0

percent inhibition of viability [%]
Settings | 1 nM | 10 nM | 100 nM | 1000 nM | 10000 nM
[15] | -0.71 | -3.48 | -3.69 | -2.2 | 0.02
[16] | -3.8 | -2.57 | 0.76 | 26.6 | 18.2
[17] | -4.92 | -2.89 | -1.1 | -3.52 | -3.58
[18] | -2.28 | -2.31 | -4.1 | 0.78 | -1.43
[19] | -6.45 | -1.35 | -6.34 | -4.92 | -4.19
[20] | -1.37 | 6.73 | -10.3 | -3.14 | 3.39
[21] | -18.6 | -17.5 | -11.1 | -7.12 | -16.9
[22] | -6.64 | -3.26 | -5.52 | -1.38 | 4.13
[23] | -5.28 | 1.66 | -5.39 | -4.15 | -3.04
[24] | -7.92 | -9.21 | -9.03 | -6.87 | -4.34
[25] | -3.6 | 10.5 | -5.25 | -4.13 | -15.8
[26] | -10.3 | -5.37 | -0.75 | -12.1 | -3.82
[27] | -2.66 | -3.34 | -7.26 | -0.16 | 1.72
[28] | 1.34 | -2.83 | 3.75 | -1.27 | -8.91
